Measurements taken from patent US8809368B2, “Compounds affecting gap junction activity” (Kansas State University Research Foundation, priority 2006, dated 2014).

Assays:
[1] = system: T47D human breast cancer cells; test: Soft agar colony growth, T47D cells; format: cell-based; details: for effect on breast cancer cell colony growth: Table 2
Procedure: Base agar plates were prepared containing 0.8% agar and 0.4% agar in Ham's F12. Cells (5×10^4 cells/33 mm^2 well) were suspended in 100 μl of Ham's F12 with 0.4% agar and plated. These plates were maintained at 37° C. for 7 days and examined for the presence of colonies. Individual colonies of 50 μm or greater were examined. T47D cells were treated with 1, 10 and 100 nM PQ1 and SA (succinic acid) as a solvent control. Individual colonies of 50 μm or greater were examined. Statistical significance, *p<0.05, of at least three experiments
FIG. 3(A) MDA-MB-453 and (B) T47D human breast cancer cells were treated with 10 μM of various quinolines for 7 days. Base agar plates were prepared containing 0.8% agar and 0.4% agar in Ham's F12. Cells (5×10^4 cells/33 mm well) were suspended in 100 μl of Ham's F12 with 0.4% agar and plated. These plates were maintained at 37° C. for 7 days and examined for the presence of colonies. Individual colonies of 40 μm or greater were examined. […] However, PQ3 caused a 2.3-fold increase in colony growth in MDA-MB-453 cells and PQ2 caused a 2.6-fold increase in T47D colony growth compared to DMSO. FIGS. 7 and 8 show MDA-MB-453 and T47D colony growth for various concentrations of PQ1 and SA tested for 7 days. The procedures are generally as described above. The cell colony growth decreased using 10 and 100 nM PQ1 for both cell types.
(§1) Colony Growth Assay: T47D human breast cancer cells were treated with PQ1. Base agar plates were prepared containing 0.8% agar and 0.4% agar in Ham's F12. Cells (5×10^4 cells/33 mm2 well) were suspended in 100 μl of Ham's F12 with 0.4% agar and plated. These plates were maintained at 37° C. for 7 days and examined for the presence of colonies. Individual colonies of 40 um or greater were examined.
Various oncogenes (e.g. ras, raf, neu, src, mos) down-regulate GJIC while several tumor suppressor genes can up-regulate GJIC. […] Cells were grown in soft agar to assess their capacity for anchorage-independent growth, which is a key feature of cell transformation due to the importance of cell-cell and cell-matrix based tumor suppression. MEC and T47D cells were treated with 10, 100, 1000, and 10000 nM PQ1 for 7 days. A graphical presentation of three experiment results is presented in log scale of PQ1 concentration. […] A 100 nM PQ1 inhibits 66% of colony growth compared to controls, without PQ1 treatment or 100 nM succinic acid.
as §1, with “Using Soft Agar. Cells” for “Assay: T47D human breast cancer cells”, “0, 10, 100, 200 and 500 nM PQ1 for 7 days.” for “PQ1.”, “mm^2” for “mm2”, “50 μm” for “40 um”

T47D cells = test: Gap junction activity (GJIC), flow cytometry of dye coupling, T47D cells; format: cell-based, human
Procedure: FIG. 4(A) MDA-MB-453 and (B) T47D cells were treated with low (500 nM) and high (10 μM) concentrations of PQs for 24 hours. Monolayers of acceptor cell population were grown on 25-cm flasks in the presence of Vibrant DiD. Vybrant DiD in acceptor cells is not able to pass through the gap junctions because of its hydrophobic property. Single cell suspensions of donor treated cells were prepared, labeled with 0.05 μg/ml calcein-AM, incubated at 37 C for 5 minutes. Quantification of dye coupling between the donor and acceptor cells was assessed by dual-excitation flow cytometry. […] Cells treated with 10 μM PQ3 have approximately 40-50% decrease in gap junction activity compared control or DMSO.

HT29 = test: Gap junction intercellular communication, HT29 colon cancer cells; format: cell-based; details: Table 3
SW620 colon cancer cells = test: Gap junction activity, SW620 colon cancer cells; format: cell-based
Procedure: However, PQ3 has an opposite effect on mammary cancer cell lines. […] A summary of PQ-mediated GJIC activity and colony growth in breast and colon cancer cells is presented in Tables 1, 2, and 3, as well as FIGS. 10-13. In FIG. 10, SW620 cells were dosed for 24 hours with PQ1 at 100, 200, 300, and 500 nM. The gap junction activity was measured as a percent of control, as previously described. It was seen that all concentrations on PQ1 increased the gap junction activity in SW620 colon cancer cells as compared to the control. In FIG. 11, the effect of PQ1 on the expression of PKCγ was studied at concentrations of 100, 200, 300 and 500 nM PQ1 for 24 hours. It is seen in FIG. 11 that PQ1 has no effect on the expression of PKCγ at the levels tested. In FIGS. 12 and 13, the effect of PQ1 on the colony growth of SW620 colon cancer cells was measured with 1-100 nM PQ1 (FIG. 12) and 10 uM PQ1 (FIG. 13).

T47D breast cancer cells = test: Xenograft tumor growth of T47D cells in Nu/Nu mice; format: in vivo
Procedure: Mice were inoculated with 17β-estradiol (1.7 mg/pellet) before the injection of 1×10^7 T47D cells subcutaneously into the inguinal region of mammary fat pad. Animals received treatment at 1 μM PQ1 or 10 μM tamoxifen. The results after 6 days of injection show a decrease in tumor growth of PQ1-treated animals compared to control or tamoxifen.
The anti-tumor effect of PQ1 was also observed in animal model. Nu/Nu mice were inoculated with estradiol-17β (1.7 mg/pellet) before the injection of 1×10^7 T47D breast cancer cells subcutaneously into inguinal region of mammary fat pad.
Xenograft Tumors of T47D cells in Nu/Nu Mice. Nu/Nu mice were ordered from The Jackson Laboratory. Mice were inoculated with estradiol-17β (1.7 mg/pellet) before the injection of 1×10^7 T47D breast cancer cells subcutaneously into inguinal region of mammary fat pad. Cell viability of T47D cells were performed prior to injection. The tumor size was measured in three dimensions with calipers every 2 days starting at Day 7. […] When tumors reached 30-50 mm^3, three animals were randomly assigned to each treatment group. Animals were injected with 1 μM of PQ1 or 10 μM of tamoxifen and a single injection of treatment was set for 7 days and daily measurement of tumor size was recorded.

| Structure (SMILES) | colony growth attenuation ([1]; 10 μM, 7 days, compared to control) | colony growth compared to control ([1]; 10, 100, 1000 and 10000 nM, 7 days) | cell colony growth ([1]; 10 and 100 nM, 7 days) | inhibition at 0.1 µM ([1]; Homo sapiens, 168 h, 100 nM, 7 days, compared to controls) [%] | effect on breast cancer cell colony growth [1] | increase in GJIC (T47D cells; FIG. 4, 24 hours) | effect on gap junction intercellular communication (T47D cells; Table 1, 500 nM) | effect on gap junction intercellular communication (HT29) | gap junction activity as compared to the control (SW620 colon cancer cells; 100, 200, 300 and 500 nM, 24 hours) | effect on gap junction intercellular communication (SW620 colon cancer cells; Table 3, 300 nM) | tumor size compared to control (T47D breast cancer cells; Day 2, 1 μM PQ1, single injection) | decrease of tumor growth (T47D breast cancer cells; Day 6 after one injection, 1 μM PQ1, compared to control) [%] | tumor growth compared to control or tamoxifen (T47D breast cancer cells; after 6 days of injection, 1 μM PQ1) | effect on colony growth ([1]; 10 μM, 7 days) | effect on gap junction intercellular communication (SW620 colon cancer cells; Table 3, 500 nM) |
| --- | --- | --- | --- | --- | --- | --- | --- | --- | --- | --- | --- | --- | --- | --- | --- |
| COc1cc(NCCCN)c2nccc(C)c2c1Oc1cccc(C(F)(F)F)c1.O=C(O)CCC(=O)O [PQ1, 6-Methoxy-8-[(3-aminopropyl)amino]-4-methyl-5-(3-trifluoromethylphenyloxy) quinoline succinic acid] | 80-95% | significant inhibition | decreased | 66 | Decrease | 20-50% | Increase | No effect | increased | Increase | decrease | 70 | decrease |  |  |
| COc1cc(N)c2nccc(C)c2c1Oc1cccc(C(F)(F)F)c1 [PQ3, 8-Amino-6-methoxy-4-methyl-5-(3-trifluoromethylphenyloxy)quinoline] |  |  |  |  | Decrease |  |  | Increase |  |  |  |  |  | inhibitory effect | Increase |
